From patent publication US10273313B2, “Multimeric mannosides, a process for preparing the same and their uses as a drug” (CENTRE NATIONAL DE LA RECHERCHE SCIENTIFIQUE, priority 2012, dated 2019)
≈ marks a conversion by molar mass, not a printed value. Like-named read-outs stand apart in the source and are kept apart here.

Experiments:
[1] = tested on: AIEC LF82 strain adhesion to T84 intestinal epithelial cells; test: Adhesion assay on T84 cells, cells incubated 1 h with mannoside prior infection (Example 21.1); assay type: cell-based, Escherichia coli
Procedure: E. coli strain LF82 was isolated from a chronic ileal lesion of a patient with Crohn's disease (CD). Bacteria were grown routinely in Luria-Bertani (LB) broth overnight at 37° C. Intestinal epithelial cells T84 derived from colonic adenocarcinoma were maintained in an atmosphere containing 5% CO2 at 37° C. in DMEM/F12 (50/50) medium supplemented with 10% (v/v) heat-inactivated fetal calf serum (FCS), 1% L-glutamine, 100 000 U·l^−1 penicillin, 100 mg·l^−1 streptomycin, 25 μg·l^−1 amphotericin B.
T84 cells were seeded in 48-well tissue culture plates with 1.5×10^5 cells per well and grown for 48 h. Cells were incubated 1 h prior infection with each mannoside at a final concentration of 100; 10; 1 or 0.1 μM in complete medium without antibiotics, containing heat inactivated fetal calf serum (FCS) and were next infected with AIEC LF82 strain at a multiplicity of infection (MOI) of 10 bacteria per cell. After a 3 h incubation period at 37° C., the monolayers were washed in phosphate-buffered saline (PBS; pH 7.2). The epithelial cells were then lysed with 1% Triton X-100 in deionized water. Samples were diluted and plated onto Luria Bertani agar plates to determine the number of cfu recovered from the lysed monolayers.
Results were expressed in percentage of residual adhesion, considering adhesion level of AIEC LF82 without mannoside treatment as 100%.

[2] = tested on: AIEC strain LF82 adhesion to T84 intestinal epithelial cells; test: Adhesion assay on T84 cells with thiazolylaminomannosides (Example 22.3); assay type: cell-based, Escherichia coli
Procedure: T84 Intestinal Epithelial cells (overexpressing the receptor CEACAM6) were beforehand incubated for 1 h with the synthetic thiazolylaminomannosides 6-20 (examples 3-17) at different concentrations. Each compound was tested four times at concentrations of 0.1, 1, 10 and 100 μM.
The cells were then infected in the presence of inhibitory compounds by the AIEC strain of reference LF82 for 3 hours at a multiplicity of infection of 10 bacteria to a cell. After 3 h of incubation, the monolayer was washed and the number of AIEC bacteria associated with cells was counted. The level of adhesion of AIEC LF82 strain in the presence of inhibitors (residual adhesion) was expressed relatively to the level of adherence in the absence of any treatment (considered 100%) (FIG. 10).

[3] = tested on: E. coli strain UTI89 in the bladder of C3H/HeN mice; test: In vivo inhibition in the murine cystitis model (instillation with UTI89)
Procedure: In vivo inhibition was evaluated by instilling 1-4 together with the UTI89 strain via a catheter in the bladder of C3H/HeN mice. […] A group of ten animals was used for each concentration of antagonists. […] The animals were sacrificed at a 6 h post infection time.
A murine model of urinary tract infection was used to test the ability of the compounds to inhibit the colonization of UTI89 in the bladder [Hung C. S.; Dodson, K. W., Hultgren S. J. Nat. Protoc. 2009, 4, 1230-1243 and Wellens A.; Garofalo C.; Nguyen H.; Van Gerven N.; Slättegård R.; Hernalsteens, J.-P.; Wyns, L.; Oscarson, S.; De Greve H.; Hultgren S. J.; Bouckaert, J. PLoS ONE 2008, 3, e2040]. The solution with high concentration of compounds was added to the resuspension of UTI89 before given to the mice. The eight-week old Female C3H/HeN mice (Harlan, Horst, The Netherlands) were anesthetized and infected via transurethral catheterization of 10^7 CFU UTI89 in solution in PBS, or in PBS with the compound in the mentioned concentration. The mice were sacrificed at 24 hours post infection and the bladders were harvested, homogenized and resuspended in PBS. The serial dilutions were spot on LB medium agar plates. The bacterial load was determined by counting the CFU recovered from the bladder. The animal experiments were approved by the Ethical Committer for Animal Experiments of Vrije Universiteit Brussel and complied with all relevant national legislation and institutional policies. The Mann-Whitney test was applied for the comparison of the data obtained from the untreated group and inhibition group in GraphPad Prism version 5.1 and two tailed P value were shown (GraphPad software).
A limited number of papers described the in vivo efficiency of anti-adhesive mannosides to treat UTIs.

bladder cell line 5637 = test: Anti-adhesives for bacterial bladder cell binding; assay type: cell-based; settings: ten-fold dilution series
Procedure: The anti-adhesive capacities of the HM-derivatized cyclodextrins 1-4 were tested in vitro on the bladder cell line 5637, in a procedure analogous as previously described (Wellens, A. et al., PLoS ONE 3: e2040 (2008)). The CD conjugates 1-4 were diluted in a ten-fold series. The minimum inhibitory concentrations (MIC) indicate the concentrations of sugars at which we see some inhibition of binding of FimH to the bladder cells, they do however not indicate complete inhibition. MIC values for the CD-conjugates 1-4 followed a similar trend as the inhibitory concentrations recorded in HIA.
The anti-adhesive capacities of the n-heptyl α-D-mannoside-derivatized cyclodextrins 1-4 were tested in vitro on the bladder cell line 5637, in a procedure analogous to as described in (Wellens, A. et al., PLoS ONE 3: e2040 (2008)). The ligands have been diluted 10-fold and this is also the resolution limit of these tests.

[4] = target: T1, monovalent lectin domain of FimH (Escherichia coli, UniProt P08191); assay type: binding; settings: for Kd / Molar ratio n meas / ΔG° / ΔH° / ΔS°: direct titration; for Kd: read-out: Kd
T1 construct: with the monovalent lectin domain of FimH were measured using isothermal calorimetry (ITC)
T1 sequence (P08191 22-179): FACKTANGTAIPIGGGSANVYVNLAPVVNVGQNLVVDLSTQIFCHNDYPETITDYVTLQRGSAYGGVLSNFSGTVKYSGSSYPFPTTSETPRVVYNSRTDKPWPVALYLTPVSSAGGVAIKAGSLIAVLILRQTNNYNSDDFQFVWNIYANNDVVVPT

[5] = tested on: type-1 piliated clinical E. coli isolate UTI89; test: Haemagglutination inhibition assay (HIA), guinea pig erythrocytes; assay type: cell-based, Escherichia coli; settings: read-out: Minimal inhibitory concentration (MIC) on haemagglutination
Procedure: Haemagglutination is observed as the red blood cells being held in suspension through the formation of a space-filling cross-linked network with the fimbriated bacteria.
The UIT89 clinical isolate was grown statically 37° C. for 48 hours in LB medium and analysed for haemagglutination of guinea pig red blood cells. Both bacteria and red blood cells (RBCs) were washed 3 times in ice-cold PBS (17 mM K/NaH2PO4, 150 mM NaCl). PBS was used for all dilutions. 96-well round-bottom microtiter plates were used for the dilutions. The titer for agglutination was determined in a 2-fold dilution series in PBS of the bacteria in a volume of 25 μL. Well 1 is a negative control without bacteria but 25 μL PBS. 25 μL PBS and 50 μL 5% RBCs were added to a final 100 μL volume. Upon 1 hour at 4° C., the titer was determined as the lowest concentration of bacteria that led to haemagglutination.
A bacterial concentration of twice the determined haemagglutination titer was kept constant in the haemagglutination inhibition assays. First, a 2-fold dilution series of the inhibitory compounds was performed in 25 μL PBS. Instead, in well 1 only 25 μL PBS was added as a negative control. 25 μL of the bacterial solution and 50 μl of 5% red blood cells were added to reach a final volume of 100 μL.

lectin domain of FimH = target: T2, lectin domain of FimH (Escherichia coli, UniProt P08191); test: Surface plasmon resonance solution competition assay; assay type: binding; settings: solution affinity, inhibition of FimH binding to immobilized mannoside, CM5 chip
T2 construct: The lectin domain of FimH was expressed as described previously and purified at pH 4.0; made in house
T2 sequence (P08191 22-179): as above
Procedure: The affinity of the compounds was first evaluated and then measured in a surface plasmon resonance solution competition assay. The lectin domain of FimH was expressed as described previously and purified at pH 4.0 in 50 mM HCOOH on a SPFF (sulfopropyl fast flow) ion exchange column (GE Healthcare). A CM5 sensor chip (Biacore, GE Healthcare) has been coated with a layer of amino-functionalized monovalent heptyl mannoside to 60 RU (response units) and the kinetics of FimH binding to the sensor chip has been determined. All data collection have been performed in HBS buffer complemented with 3 mM EDTA and 0.01% Tween20. Regeneration was done with a single 10 s injection of 100 mM NaOH in water.
The solution affinity provided by the Biacore software uses the equation (B−A−Kd)/2+(0.25*(A+B+Kd)^2−A*B)^0.5, with B presenting the uninhibited concentration of FimH, and A the variable compound concentration.

UTI89 E. coli = test: Inhibition of haemagglutination (Example 19); assay type: cell-based, Escherichia coli; settings: two-fold dilution from 1 mM
Procedure: Interaction of E. coli FimH adhesins with the glycocalyx of guinea pig erythrocytes forms a cross-linked network into the wells. Glycoconjugates added in a two-fold dilution series prevents the agglutination reaction. The inhibition titer is defined as the lowest concentration of the glycoconjugate at which haemagglutination is still inhibited. UTI89 E. coli were grown statically overnight in LB at 37° C., washed three times in ice-cold phosphate-buffered saline and resolubilized. A two-fold dilution of glycoconjugates was prepared in 25 μL 20 mM HEPES pH 7.4 with 150 mM NaCl, starting from 1 mM as the highest concentration. The bacterial solution (25 μL) was added to the two-fold dilution series of the compound. Finally 50 μl of guinea pig red blood cells, washed in buffer and diluted to 5%, were added to a final 100 μL and left on ice for 30 min. before read-out. Due to serial dilutions, the maximal error is ±one well, or a factor two (FIG. 2).

[6] = tested on: primary human peripheral venous blood monocyte-derived macrophages; test: Macrophage-mediated phagocytosis of aged PMN cells; assay type: cell-based; settings: 500 nM
Source text: To estimate the influence of mannose-based inhibitors on possible inhibition of phagocytosis we used primary human peripheral venous blood monocyte-derived macrophages and estimated their ability to phagocyte autologous and allogenic human blood-derived PMN cells, as described by us previous (Bilyy, R. O. et al. (2012) J Biol Chem 287, 496-503).
Primary human PMN and MoMa from healthy volunteers were used. Monocytes were isolated from peripheral blood by LymphoPrep® gradient according to manufacture's recommendations for isolation of PBMC fraction. Plastic-attached cells of PBMC fraction were then cultured for 7 days in the presence of GM-CSF (100 U/ml) and autologous serum (added at days 1, 3 and 5) to generate MoMa. After 7 days of differentiation, the MoMa population was tested. They typically contain >95% CD11b+ cells, >90% CD14+ cells and >85% CD89+ cells. Phagocytosis was assessed by pre-incubation of PMN (freshly isolated or aged for 24 h) with mannose-based inhibitor for 30 min at 37° C. at Ringer buffer. Cells were thoroughly washed three times with Ringer solution and incubated with human MoMa for 2 hours. Uningested PMN were analyzed by flow cytometry (for this reason cells were pre-stained with CFSE (Rodel, F. et al. (2005) Strahlentherapie and Onkologie: Organ der Deutschen Rontgengesellschaft . . . [et al] 181, 456-462)) or in the hemocytometric chamber using Zeiss AxioImager A1 microscope. The percentage of prey cells that had been bound to or taken up by MoMa (% of phagocytosis) was calculated.

[7] = excluding spiky heat signals (2)

O=C[C@@H](O)[C@@H](O)[C@H](O)[C@H](O)CO [mannose, reference compound]
Concentration reaching around 75% of binding inhibition (25% line) [1]: 50000 µM
Concentration necessary to achieve a similar percentage of residual adhesion (decrease greater than 95%) [2]: 100 mM
Decrease of adherence to intestinal epithelial cells ([2]; 100 μM): about 25%

OCC1OC(OCCCCCCCOCc2cn(CCOCCOCCOCc3cn(CC4OC5OC6C(CO)OC(OC7C(CO)OC(OC8C(CO)OC(OC9C(CO)OC(OC%10C(CO)OC(OC%11C(CO)OC(OC4C(O)C5O)C(O)C%11O)C(O)C%10O)C(O)C9O)C(O)C8O)C(O)C7O)C(O)C6O)nn3)nn2)C(O)C(O)C1O (stereo not shown) [Compound 3]
Inhibition efficiency at decreased concentration ([3]; 0.1 mM): important drop in the inhibition efficiency
Reduction of the level of infection ([3]; instillation of 1 mM with UTI89): 10 fold
MIC, anti-adhesive potency on bladder cell line 5637 (bladder cell line 5637): >400000 nM
Affinity of FimH for the ligand (in words) ([4]; ITC): micromolar range
Kd ([4]; data processed to exclude spiky heat signals (2)): 1950 nM
Kd ([4]; data processed to include the whole binding event (1)): 4570 nM
Molar ratio n meas [4, 7]: 0.57
ΔG° [4, 7]: -7.7 kcal/mol
ΔH° [4, 7]: -4.8 kcal/mol
ΔS° [4, 7]: 9.9 cal/mol/deg
Molar ratio n meas ([4]; whole binding event (1)): 0.45
ΔG° ([4]; whole binding event (1)): -7.2 kcal/mol
ΔH° ([4]; whole binding event (1)): -10.0 kcal/mol
ΔS° ([4]; whole binding event (1)): −9.6 cal/mol/deg
MIC ([5]; UTI89 1.2 10^9 CFU/ml): 200 µM (≈ 341 µg/mL)
MIC ([5]; UTI89 1.4 10^8 CFU/ml): 50 µM (≈ 85.3 µg/mL)
MIC ([5]; UTI89 7 10^7 CFU/ml): 31 µM (≈ 52.9 µg/mL)

Nc1ccn([C@H]2OC(CO)[C@@H](O)C(O)C2O)c(=S)n1 (stereo partly drawn) [NM34, 4-amino-1-(2,3,4,6-tetrahydroxy-α-D-mannopyranosyl)pyrimidine-2(1H)-(thi)one]
Kd (lectin domain of FimH): 2370 nM
Inhibitory potency in haemagglutination (FIG. 2) (UTI89 E. coli): non-effectiveness

COc1ccn([C@H]2OC(CO)[C@@H](O)C(O)C2O)c(=S)n1 (stereo partly drawn) [NM30, 1-(2,3,4,6-tetrahydroxy-α-D-mannopyranosyl)-4-methoxypyrimidine-2(1H)-(thi)one]
Kd (lectin domain of FimH): 920 nM
Inhibitory potency in haemagglutination (FIG. 2) (UTI89 E. coli): non-effectiveness

CO[C@H]1O[C@H](CO)[C@@H](O)[C@H](O)[C@@H]1O [αMM, α-D-methyl mannoside]
Phagocytosis rate [6]: significantly decreased phagocytosis rate
